One compound from PMC3161871, “Heteroarylketones inhibit astroglial interleukin-6 expression via a STAT3/NF-κB signaling pathway” (Journal of Neuroinflammation, 2011) can be followed below.

Test [1] concerns OSM-stimulated IL-6 secretion from U343 cells. Nature of the test: OSM-induced IL-6 release from U343 glioma cells (IL-6 ELISA of conditioned medium). Type of test: cell-based, human. The procedure: (§1) The human glioma cell line U343 [34] was maintained in DMEM containing 10% fetal bovine serum and 60 μg/ml gentamycin (Invitrogen, Darmstadt, Germany) at 37°C in a 10% CO2 atmosphere.
Measurements of IL-6 in conditioned medium and murine plasma samples were done by means of human- or murine-specific IL-6 Cytoset kits (Invitrogen, Darmstadt, Germany) according to manufacturer's protocols.
Using the characterized cell culture model of OSM-induced IL-6 expression, our in-house compound libraries were screened for potent IL-6 expression inhibitors. Human U343 glioma cells were treated with 100 ng/ml OSM for 24 h. The analysis by IL-6 ELISA identified a set of structurally related compounds as potent inhibitors of IL-6 secretion (Table 1). […] HAKs with proline in position P1 are known from the literature as inhibitors of prolyl endopeptidase (PREP), a proline-specific serine protease.
A general note: In an ELISA, binding on a coated surface is turned into a signal by an enzyme label.

The test system is the same in test [2]. The description is as above. To be noted: 20 μM compound, vehicle-transfected U343 cells, OSM 6 h. Type of test: cell-based, human.
The test system of test [3] is IL-6 mRNA expression in U343 cells. Nature of the test: OSM-induced IL-6 mRNA expression in U343 cells (qRT-PCR time course). The class given is cell-based, human. To be noted: 20 μM compound. The procedure:
as §1
Total RNA of cultured cells and homogenized mouse brain tissue samples was isolated using RNA isolation kit "NucleoSpin RNA II" from Macherey and Nagel. RNA quantity was measured by spectrophotometrical quantification (NanoDrop 2000, Peqlab, Erlangen, Germany). Total RNA (0.5 μg) was transcribed to cDNA using Superscript III and oligo-dT primer (Invitrogen, Darmstadt, Germany). Quantitative real-time PCR was performed with QuantiFast SYBR Green PCR Master mix (Qiagen, Hilden, Germany) using Rotorgene 3000 system (Corbett, Sydney, Australia). Gene expression was normalized to the expression of three reference genes glyceraldehyde 3-phosphate dehydrogenase (GAPDH), glucose-6-phosphate dehydrogenase (G6PDH) and hypoxanthine-guanine phosphoribosyltransferase (HPRT). Primers for PREP (5'-[…]-3'; 5'- […]-3') and IL-6 (5'-AAAGGACGTCACATTGCA-3'; 5'-[…]-3') were designed using the Primer3 Software (http://frodo.wi.mit.edu/). Data were analyzed by Rotorgene 3000 Software version 6.0 by comparative quantitation. The appropriate size of PCR products was confirmed by gel-electrophoresis stained with ethidium bromide.
To analyze the time-course of OSM-induced IL-6 expression, U343 cells were incubated with OSM for different periods of time as indicated in figure 1B. Amounts of IL-6 mRNA and protein were subsequently quantified by qRT-PCR and by ELISA, respectively. […] Significant induction of IL-6 protein was detected in the conditioned medium as early as 3 h post stimulation and reaching a maximum at 24 h.
To reveal whether bioactivity of HAK compounds is based on suppression of IL-6 protein biosynthesis or on interference with IL-6 mRNA expression OSM-treated U343 cells were incubated with 20 μM of compound HAK-2 for different periods of time. […] Therefore, it is very likely that the relevant molecular target of HAK compounds is involved in the OSM-induced signal transduction process not earlier than 6 h after onset of the stimulation.
Figure 4 Time course of OSM-induced IL-6 mRNA expression in U343 cells treated with compound HAK-2. […] U343 cells were stimulated with 100 ng/ml OSM and treated with 0.1% DMSO as solvent control (solid line, black triangle) or 20 μM HAK-2 (dashed line, white triangle). Samples were harvested at time points indicated to extract total RNA. IL-6 mRNA expression was analyzed by qRT-PCR. All data points are presented as mean ± SD, and were obtained from experiments carried out in quadruplicate. Statistical analysis were performed between control and HAK-2 samples from same time point. ns, not significant; ***p < 0.001.

Test [4] has as its system LPS-induced IL-6 expression in C57/B6 mice. The test is described as follows: LPS-induced acute septic shock model (IL-6 in plasma, hippocampus, cortex). Type of test: in vivo, mouse. The settings on record: 1 mg/kg LPS i.p., HAK-2 in parallel, 2 h. The procedure: A total number of 20 C57/B6 mice at the age of 5 months with an initial body weight of 22 g to 30 g was analyzed in this study. Mice were randomly assigned to 2 groups of control mice (injection of saline or LPS; n = 6 each) and 1 group of LPS-treated mice co-injected with compound HAK-2 (n = 8). Animals were housed at the Experimental Animal Core Facility of the University of Leipzig. The study was approved by the Regierungspräsidium Leipzig, License # TVV 28/07 on November 14, 2007. To induce septic shock and acute inflammation, 14 mice were injected intraperitoneally (i.p.) with 1 mg LPS (Serotyp 055:B5)/kg body weight. Saline injection i.p. was used as control treatment (n = 6). […] Two hours post treatment mice were sacrificed by CO2 inhalation and tissue samples from hippocampus and cortex as well as plasma were prepared as described later.
Mouse brain samples for qRT-PCR were prepared from 6 - 8 animals per group. After removal of the brain, the tissue samples were flushed shortly with ice cold saline and placed briefly on filter paper. Cortex and hippocampus were prepared, weighted and snap frozen in liquid nitrogen. Samples were stored at -80°C until RNA isolation. […]
Total RNA of cultured cells and homogenized mouse brain tissue samples was isolated using RNA isolation kit "NucleoSpin RNA II" from Macherey and Nagel. RNA quantity was measured by spectrophotometrical quantification (NanoDrop 2000, Peqlab, Erlangen, Germany). […] Quantitative real-time PCR was performed with QuantiFast SYBR Green PCR Master mix (Qiagen, Hilden, Germany) using Rotorgene 3000 system (Corbett, Sydney, Australia). […] Data were analyzed by Rotorgene 3000 Software version 6.0 by comparative quantitation. […]
Figure 6 Suppression of LPS-induced IL-6 expression in vivo by compound HAK-2. […] After 2 hours treatment, samples from hippocampus (A), cortex (B) and plasma (C) were prepared and analyzed by qRT-PCR and ELISA, respectively. […] Statistically significant differences between LPS group and LPS + HAK-2 group were calculated using the unpaired t-test (*p < 0.05; **p < 0.01; ***p < 0.001).

In the case of `C[C@H](NC(=O)OCc1ccccc1)C(=O)N1CCC[C@H]1C(=O)c1nc2ccccc2s1` [HAK-2, Z-Ala-Pro-BTh], the “Remaining IL-6 expression [% of control]” value in test [1] (100 ng/ml OSM, 24 h, IL-6 release of vehicle-treated cells set to 100% (n = 2), mean ± SD) is listed as 18.7 ± 3.87 % of control. Further, the “Effect on OSM-induced IL-6 secretion (in words)” value in test [1] (OSM-stimulated) is on record as “significantly reduced”. For the same compound, the “IL-6 levels (mRNA and released protein) in the PREP knock-down experiment” value in test [2] is given as “reduces IL-6 levels”. Moreover, in test [3] (100 ng/ml OSM), the “Inhibition of OSM-induced IL-6 mRNA expression (time course)” value is given as “strong inhibition”. In test [3] (100 ng/ml OSM, 6 h post stimulation), the “Effect on second IL-6 mRNA expression peak” value was “completely suppresses”. The “Effect on first IL-6 mRNA peak” value in test [3] (1 h post OSM stimulation) was “insensitive”. For the same compound, in test [4], the “Reduction of induced IL-6 mRNA in cortex” value worked out at 53%, the “Reduction of induced IL-6 mRNA in hippocampus” value is listed as 60% and the “Reduction of plasma level of IL-6 protein vs LPS alone” value is reported as 55%.
